From patent US20050203067A1, “Pesticidal compositions and methods” (priority 2003, published 2005)
pEC50: −log10 of the molar value. ≈ marks a conversion by molar mass, not a printed value. Where “and” joins values, the source holds several entries; their conditions need not be identical. Equal entries are not always repeated. Where two headings read alike, the source gives them in different places.

How the values were obtained:
[1] = tested on: root knot nematode (Meloidogyne incognita); settings: in vivo
[2] = tested on: Meloidogyne incognita J2 larvae; assay: Miniaturized greenhouse assay on cucumber seedlings, root gall rating; assay type: in vivo
C. elegans (strain N2) = assay: C. elegans contact assay (NGM-agar, 24-well); assay type: in vivo; settings: Caenorhabditis elegans, 96 h
tomato plants = settings: in vivo
several arthropods = settings: in vivo
C. elegans [3] = assay: C. elegans liquid (well) assay; assay type: in vivo; settings: Caenorhabditis elegans, read-out: Well EC50
C. elegans [4] = assay: C. elegans agar (plate) assay; assay type: in vivo; settings: Caenorhabditis elegans, read-out: Plate EC50
Botrytis cinerea = assay: microbe, parasite or virus in culture; assay type: cell-based; settings: read-out: growth inhibition
Sclerotinia sclerotiorum = assay: microbe, parasite or virus in culture; assay type: cell-based; settings: read-out: growth inhibition
Fusarium graminearum = assay: microbe, parasite or virus in culture; assay type: cell-based; settings: read-out: growth inhibition
cucumber seedling = assay: Miniaturized greenhouse assay, phytotoxicity rating; settings: 200 ppm
Alternaria solani = assay: microbe, parasite or virus in culture; assay type: cell-based; settings: read-out: growth inhibition
P. falciparum = settings: cited from earlier work
P. falciparum PEAMT = P. falciparum PEAMT (Plasmodium falciparum, UniProt Q8IDQ9); settings: cited from earlier work
Chain of P. falciparum PEAMT (Q8IDQ9 whole entry): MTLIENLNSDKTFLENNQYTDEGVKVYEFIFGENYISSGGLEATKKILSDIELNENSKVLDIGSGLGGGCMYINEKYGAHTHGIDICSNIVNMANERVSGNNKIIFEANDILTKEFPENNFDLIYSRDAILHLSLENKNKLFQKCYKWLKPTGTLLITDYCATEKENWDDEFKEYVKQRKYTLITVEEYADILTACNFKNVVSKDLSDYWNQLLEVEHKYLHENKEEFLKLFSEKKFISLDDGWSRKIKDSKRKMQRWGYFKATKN

## O=S(=O)(F)CCNc1ccc(N=Nc2ccccc2)cc1 [Compound 3746, 2-(4-phenylazo-phenylamino)-ethanesulfonyl fluoride]
[1]
  nematode control (gall ratings): nematode control approaching that of the commercial nematicides fenamiphos (Nemacur)
[2]; 40 ppm
  Gall 40 (gall rating): 1.33 and 2.00
[2]; 200 ppm
  Gall 200 (gall rating): 0.00
C. elegans (strain N2)
  pEC50: 5.70
Tomato plants
  phytotoxicity (root weights): no phytoxicity
Several arthropods
  toxicity to arthropods: not toxic
Beet army worm; 2500 μM
  Result (arthropod toxicity): No effect
Beet army worm; 25000 μM
  Result (arthropod toxicity): Lethal
C. elegans [3]
  EC50: 6.3 to 12.5 µg/mL (≈ 20.5 to 40.7 µM)
C. elegans [4]
  EC50: 1.6 µg/mL (≈ 5.21 µM)
Corn ear worm; 2500 μM
  Result (arthropod toxicity): Non-effect
Corn ear worm; 25000 μM
  Result (arthropod toxicity): Lethal
Botrytis cinerea; 1.63 μM
  inhibition at 1.63 µM: < 25%
Botrytis cinerea; 16.3 μM
  inhibition at 16.3 µM: > 75%
Sclerotinia sclerotiorum; 16.3 μM
  inhibition at 16.3 µM: < 25%
Sclerotinia sclerotiorum; 163 μM
  inhibition at 163 µM: > 75%
Fusarium graminearum; 1.63 μM
  inhibition at 1.63 µM: < 25%
Fusarium graminearum; 16.3 μM
  inhibition at 16.3 µM: > 75%
Cucumber seedling
  Ptox 200 (phytotoxicity rating): 3.00 and 2.67
Alternaria solani; 1.63 μM
  inhibition at 1.63 µM: < 25%
Alternaria solani; 16.3 μM
  inhibition at 16.3 µM: > 75%
Various fungal species
  toxicity to fungal species: Low to moderate toxicity

## CCCCCCCCCCCCCCCCOP(=O)([O-])OCC[N+](C)(C)C [miltefosine]
P. falciparum
  parasite proliferation within human erythrocytes: inhibits parasite proliferation
P. falciparum PEAMT
  inhibition of the plasmodium PEAMT enzyme: inhibited
